# Test results reported in patent US12359230B2, “Microbial oils with high levels of omega-3 fatty acids” (MARA Renewables Corporation, priority 2020, dated 2025).
# How the values were obtained:
# Assay type in all cases: cell-based
# [1] = tested on: Aurantiochytrium sp. (G3); assay: Cerulenin dose timing: fatty acid profile of Aurantiochytrium sp. (G3)
# Experimental: To determine the ideal time for addition of the fatty acid synthase inhibitor cerulenin without excessive harm such as preventing cell growth, experiments were conducted by adding a set amount of cerulenin at various amounts of time after inoculation. In all experiments, the control experiment was performed with the same medium and growth conditions without the addition of FAS inhibitors.
# [2] = tested on: Aurantiochytrium sp. (G3); assay: Cerulenin concentration: fatty acid profile of Aurantiochytrium sp. (G3); settings: 20° C.
# Experimental: To determine the optimum concentration of cerulenin to provide the best results, a range of concentrations from 1 μM to 40 μM were tested. For consistency, all cerulenin additions were made at 24 hours after inoculation. […] (G3) in varying concentrations of cerulenin at 20° C.
# [3] = tested on: Aurantiochytrium sp. (G3); assay: Cerulenin dosing regimen: fatty acid profile of Aurantiochytrium sp. (G3); settings: for DHA: DPA / Fatty Acid Content, TFA: 20° C.
# Experimental: To investigate the effect of prolonged, repeated exposure to cerulenin, doses were spread equally across 3 or 6 times during the experiment. In each case, the total amount added was equivalent to the corresponding treatments that were added entirely at 24 hours. All additions began at 24 hours after inoculation. In FIGS. 3 and 4, a clear trend of increasing DHA and DPA was visible with both increasing cerulenin concentration and by dosing the cerulenin in multiple equivalent pulses.
# [4] = tested on: Aurantiochytrium sp. (G3); assay: Cerulenin effect on product concentration and yield per carbon consumed
# Excerpt: To assess the impact of the herein described methods for PUFA enhancement strategy, the yields of product (i.e. TFA, DHA or DPA) relative to the amount of carbon assimilated by the G3 cells was investigated. In FIG. 5, the total amount of product synthesized (categorized as total fatty acids (TFA), saturated fatty acids (SFA) or DHA) is depicted. In the presence of fatty acid synthesis inhibitors, dosed at certain frequency and concentration, both TFA and DHA concentration increased while SFA concentration decreased. For example, under the condition where cerulenin was dosed 1 μM each time for 6 times at 12 hour intervals, TFA and DHA increased by 15% and 71%, respectively, when compared to the results of the control experiment (FIG. 5).
# [5] = 25 μM cerulenin added 0 hr after inoculation, 20° C.
# [6] = 25 μM cerulenin added 24 hr after inoculation, 20° C.
# [7] = 25 μM cerulenin added 48 hr after inoculation, from 25° C. data
# [8] = cerulenin added 24 hours after inoculation
# [9] = 1 μM cerulenin added at 24 hours after inoculation
# [10] = 2 μM cerulenin added at 24 hours after inoculation
# [11] = 3 μM cerulenin added at 24 hours after inoculation
# [12] = 6 μM cerulenin added at 24 hours after inoculation
# [13] = 9 μM cerulenin added at 24 hours after inoculation
# [14] = 25 μM cerulenin added at 24 hours after inoculation
# [15] = 40 μM cerulenin added at 24 hours after inoculation
# [16] = 3 μM cerulenin added entirely at 24 hours
# [17] = 6 μM cerulenin added entirely at 24 hours
# [18] = 9 μM cerulenin added entirely at 24 hours
# [19] = 25 μM cerulenin added entirely at 24 hours
# [20] = 3 × 1 μM cerulenin, interval 24 hours, starting at 24 hours after inoculation
# [21] = 3 × 2 μM cerulenin, interval 24 hours, starting at 24 hours after inoculation
# [22] = 3 × 3 μM cerulenin, interval 24 hours, starting at 24 hours after inoculation
# [23] = 3 × 8.3 μM cerulenin, interval 24 hours, starting at 24 hours after inoculation
# [24] = 6 × 0.5 μM cerulenin, interval 12 hours, starting at 24 hours after inoculation
# [25] = 6 × 1 μM cerulenin, interval 12 hours, starting at 24 hours after inoculation
# [26] = 6 × 2 μM cerulenin, interval 12 hours, starting at 24 hours after inoculation
# [27] = 6 × 3 μM cerulenin, interval 12 hours, starting at 24 hours after inoculation
# [28] = 6 × 4.17 μM cerulenin, interval 12 hours, starting at 24 hours after inoculation
# [29] = cerulenin 1 μM each time for 6 times at 12 hour intervals
compound,measurement,setting,value
C/C=C/C/C=C/CCC(=O)[C@H]1O[C@H]1C(N)=O [cerulenin],DHA: DPA,[1]; [5],6.13
same,"Fatty Acid Content, TFA",[1]; [5],579.14 mg/g of dry biomass
same,DHA: DPA,[1]; [6],5.14
same,"Fatty Acid Content, TFA",[1]; [6],560.24 mg/g of dry biomass
same,DHA: DPA,[1]; [7],4.58
same,"Fatty Acid Content, TFA",[1]; [7],641.86 mg/g of dry biomass
same,"C14:0 reduced (% of TFA, vs control)",[1]; [8],21.1%
same,"C16:0 reduced (% of TFA, vs control)",[1]; [8],27.9%
same,cell growth,[1]; cerulenin added at any addition time after inoculation,not inhibited
same,DHA: DPA,[2]; [9],8.73
same,"Fatty Acid Content, TFA",[2]; [9],580.28 mg/g of dry biomass
same,DHA: DPA,[2]; [10],8.50
same,"Fatty Acid Content, TFA",[2]; [10],580.90 mg/g of dry biomass
same,DHA: DPA,[2]; [11],6.77
same,"Fatty Acid Content, TFA",[2]; [11],658.72 mg/g of dry biomass
same,DHA: DPA,[2]; [12],6.87
same,"Fatty Acid Content, TFA",[2]; [12],619.88 mg/g of dry biomass
same,DHA: DPA,[2]; [13],6.26
same,"Fatty Acid Content, TFA",[2]; [13],603.79 mg/g of dry biomass
same,DHA: DPA,[2]; [14],5.27
same,"Fatty Acid Content, TFA",[2]; [14],578.10 mg/g of dry biomass
same,DHA: DPA,[2]; [15],4.54
same,"Fatty Acid Content, TFA",[2]; [15],540.11 mg/g of dry biomass
same,DHA: DPA,[3]; [16],6.77
same,"Fatty Acid Content, TFA",[3]; [16],658.72 mg/g of dry biomass
same,DHA: DPA,[3]; [17],6.87
same,"Fatty Acid Content, TFA",[3]; [17],619.88 mg/g of dry biomass
same,DHA: DPA,[3]; [18],6.26
same,"Fatty Acid Content, TFA",[3]; [18],603.79 mg/g of dry biomass
same,DHA: DPA,[3]; [19],5.40
same,"Fatty Acid Content, TFA",[3]; [19],595.96 mg/g of dry biomass
same,DHA: DPA,[3]; [20],6.67
same,"Fatty Acid Content, TFA",[3]; [20],636.22 mg/g of dry biomass
same,DHA: DPA,[3]; [21],6.10
same,"Fatty Acid Content, TFA",[3]; [21],614.40 mg/g of dry biomass
same,DHA: DPA,[3]; [22],6.28
same,"Fatty Acid Content, TFA",[3]; [22],597.67 mg/g of dry biomass
same,DHA: DPA,[3]; [23],4.75
same,"Fatty Acid Content, TFA",[3]; [23],617.52 mg/g of dry biomass
same,DHA increase,"[3]; 6 equivalent doses of cerulenin, 12 μM in total",51.6%
same,DHA: DPA,[3]; [24],5.66
same,"Fatty Acid Content, TFA",[3]; [24],616.79 mg/g of dry biomass
same,DHA: DPA,[3]; [25],5.12
same,"Fatty Acid Content, TFA",[3]; [25],620.75 mg/g of dry biomass
same,DHA: DPA,[3]; [26],4.69
same,"Fatty Acid Content, TFA",[3]; [26],585.23 mg/g of dry biomass
same,DHA: DPA,[3]; [27],4.19
same,"Fatty Acid Content, TFA",[3]; [27],540.81 mg/g of dry biomass
same,DHA: DPA,[3]; [28],3.91
same,"Fatty Acid Content, TFA",[3]; [28],538.56 mg/g of dry biomass
same,DHA %,"[3]; flask experiment, multiple and intermittent dosing of cerulenin (12 μM total, 20° C., FIG. 7)",68.7%
same,maximal decrease in C14:0,[3]; repeated cerulenin dosing,85.1%
same,maximal decrease in C16:0,[3]; repeated cerulenin dosing,83.9%
same,impact on total fatty acids,[3]; repeated dose addition of cerulenin,no negative impact
same,increase in DHA yield (gram product/gram carbon consumed) vs control,[4]; 6×1 μM cerulenin,53%
same,reduction in SFA yield (gram product/gram carbon consumed) vs control,[4]; 6×1 μM cerulenin,64%
same,DHA concentration increased vs control,[4]; [29],71%
same,TFA concentration increased vs control,[4]; [29],15%
